Non-standard residues stand in square brackets, D forms with d. Nle = CCCC[C@H](N)C(=O)O
Key:
Assay type in all cases: cell-based, human
melanocyte strain 1513c [1] = test: Cell proliferation as a measure of stability; conditions: for Cell proliferation, column 2: column 2, not defined; for Cell proliferation, Mean [1+2]: STRAIN 1513c, mean over experiments [1] and [2]
Experimental: (§1) With continued reference to Figs. 7, 8 and 9, to determine the stability of CUV9900 versus that of NDP-MSH and α-MSH, melanocytes were treated with 1 nM of each peptide, namely with CUV9900, NDP-MSH and α-MSH, for a total of 6 days, or with 1 nM peptides that were incubated for 5 hours at 37 °C prior to addition to the cultures, every other day, for a total of 6 days. Tyrosinase activity was measured at the end of treatment. In the experiments, cell number represents the mean percent of control of 3 determinations/ group ±SE, and tyrosinase activity data represent the mean percent of control of 6 determinations ±S.E. It should be noted that for the sake of reproducibility the experiment of strain 1513c of Fig. 9 was performed once more 6 months later than the experiment of Fig. 7.
Peptides were incubated at 37 degrees Celsius for 5 hours and then split into groups. Cell proliferation was a measure of stability, whereby the experiments on strain 1513c were divided in period 1 and 2 under standard conditions.

melanocyte strain 1505b = test: Tyrosinase activity as a measure of stability / residual effect; conditions: for Tyrosinase activity, column 1 / Tyrosinase activity, column 2 / Tyrosinase activity, column 3 / Tyrosinase activity, Mean: STRAIN 1505b; for Tyrosinase activity, column 1: Table 6 (Fig. 8), after 3 days of treatment; for Tyrosinase activity, column 1 / Tyrosinase activity, column 2 / Tyrosinase activity, column 3: 1nM; for Tyrosinase activity, column 2 / Tyrosinase activity, column 3 / Tyrosinase activity, Mean: Table 6; for Tyrosinase activity, column 2: column 2, not defined; for Tyrosinase activity, column 3: column 3, apparently 4 days after peptide removal; for Tyrosinase activity, Mean: mean of columns 1-3
Experimental: To determine the residual effect of CUV9900, as compared to NDP-MSH and α-MSH, on tyrosinase activity, melanocytes were treated with either CUV9900 or NDP-MSH at the concentrations previously described for a total of 3 days. Tyrosinase activity was measured at the end of the 3 days of treatment, and 2 and 4 days after maintenance of the melanocytes in the complete absence of any treatment.
as §1
Melanocytes were treated for 3 days with the designated concentrations of CUV9900, NDP-MSH, or MSH, then maintained in absence of peptides for 4 days. Tyrosinase activity was determined 3 days after treatment.

melanocytes strain 1513c = test: cAMP levels (125I radioimmunoassay), dose-response; conditions: 45 min, 0.1 mM IBMX; for maximal level of cAMP: at 10 nM
Experimental: Dose-response experiments were carried out on three melanocytic strains, namely strains 1513c, 1505b and 105c melanocytes were treated with 1 pM-10 nM CUV9900 or NDP-MSH, or with 0.1-10 nM MSH for 45 minutes in the presence of 0.1 mM isobutyl methylxanthine (IBMX). The results obtained from strain 1513c are shown in Fig. 3, the results obtained from strain 1505b are shown in Fig. 5a and the results obtained from strain 105c are shown in Fig. 5b. The strains 1505b and 1513c were obtained from the same human adult while the strain 105c was obtained from another human adult. Cyclic AMP is the second messenger for the melanocortin-1 receptor, and assessment is usually performed indicating cellular activity reflective of melanogenesis. Cyclic AMP levels were determined using ^125I-labeled radioimmunoassay kit (Perkin Elmer, Waltham, MA), in human melanocytes that were treated with 0 (control), 0.1-10.0 nM α-MSH, or 0.001-10 nM NDP-MSH or 0.001-10.0 nM CUV 9900 for 45 min. in the presence of 0.1 mM IBMX, a phosphodiesterase inhibitor to prevent cAMP degradation. Triplicate wells were included in each group, and duplicate samples from each well were assayed for cAMP levels. Each data point is the mean percent of control of 6 determinations/group ±S.E.

melanocyte strain 1513c [2] = test: Tyrosinase activity as a measure of stability / residual effect; conditions: for Tyrosinase activity, column 3: 4 days after peptide removal
Experimental: To determine the residual effect of CUV9900, as compared to NDP-MSH and α-MSH, on tyrosinase activity, melanocytes were treated with either CUV9900 or NDP-MSH at the concentrations previously described for a total of 3 days. Tyrosinase activity was measured at the end of the 3 days of treatment, and 2 and 4 days after maintenance of the melanocytes in the complete absence of any treatment. With continued reference to Figs. 7, 8 and 9, to determine the stability of CUV9900 versus that of NDP-MSH and α-MSH, melanocytes were treated with 1 nM of each peptide, namely with CUV9900, NDP-MSH and α-MSH, for a total of 6 days, or with 1 nM peptides that were incubated for 5 hours at 37 °C prior to addition to the cultures, every other day, for a total of 6 days. Tyrosinase activity was measured at the end of treatment. In the experiments, cell number represents the mean percent of control of 3 determinations/ group ±SE, and tyrosinase activity data represent the mean percent of control of 6 determinations ±S.E. It should be noted that for the sake of reproducibility the experiment of strain 1513c of Fig. 9 was performed once more 6 months later than the experiment of Fig. 7. […] Melanocytes were treated for 3 days with the designated concentrations of CUV9900, NDP-MSH, or MSH, then maintained in absence of peptides for 4 days. Tyrosinase activity was determined 3 days after treatment. Comparison of stability of CUV9900, NDP-MSH and MSH was compared in 1513c, as shown in Fig. 7; the strain was treated for 6 days with 1 nM CUV9900, NDP-MSH or MSH with fresh medium and peptide replenished every 2 days. Melanocytes were treated according to the same experiment protocol but each peptide was incubated for 5-7 hours at 37 degrees Celsius. […] The assessment of tyrosinase was statistically different from control, as determined by ANOVA (p=<0.05).

melanocytic strain 1505b = test: UV-induced generation of hydrogen peroxide (luminol luminescence); conditions: for UV-induced hydrogen peroxide generation: strain 1505b, 105 mJ/cm^2 UV, 0, 30 and 45 minutes after UV
Excerpt: With reference to Figs. 10 and 11, melanocytes were irradiated with a bank of FS 20 lamps, with 75% emission in the UVB, and 25% emission in the UVA spectra, with peak emission at 313 nm wavelength. Any emission of UVC rays from the UV source (FS 20 lamps) was blocked by Kodacel filter. Prior to irradiation, the culture medium was replaced by PBS, which was removed after UV exposure, and fresh medium added.
Melanocytes were irradiated with 105 mJ/cm^2 UV, and treated immediately while in PBS with 0, 1 nM α-MSH or 1 nM CUV9900. Generation of hydrogen peroxide, representative of reactive oxygen species (ROS), was determined by measuring the luminescence of luminol at 0, 30, and 45 min after UV exposure. Triplicate dishes were included in each group, and duplicate samples from each dish were used for measurement of hydrogen peroxide at each time point. Each data point represents the mean of 6 determinations/group ±S.E.

[3] = STRAIN 1513c [1], Table 1, mean of columns 1-3
[4] = STRAIN 1513c [2], Table 2, mean
[5] = STRAIN 1513c [1], Table 4 (Fig. 7), 1nM, after 3 days of treatment
[6] = STRAIN 1513c [1], Table 4, 1nM, column 2, apparently 2 days after removal of peptides
[7] = STRAIN 1513c [2], Table 5 (Fig. 9), 1 nM, 6 days, fresh peptide
[8] = STRAIN 1513c [2], Table 5, 1 nM, 6 days, peptide incubated 5-7 hours at 37 degrees Celsius
[9] = over the 2 experiments in strain 1513c

Ac-Ser-Tyr-Ser-Nle-Glu-His-D-Phe-Arg-Trp-Gly-Lys-Pro-Val-NH2 [NDP-MSH, reference compound]
Cell proliferation, column 2 (melanocyte strain 1513c [1]; STRAIN 1513c [1], Table 1, 1nM): 115 % of control
Cell proliferation, Mean (melanocyte strain 1513c [1]; [3]): 112.7 % of control
Cell proliferation, column 2 (melanocyte strain 1513c [1]; STRAIN 1513c [2], Table 2): 117.5 % of control
Cell proliferation, Mean (melanocyte strain 1513c [1]; [4]): 115.0 % of control
Cell proliferation, Mean [1+2] (melanocyte strain 1513c [1]; Table 2): 113.6 % of control
Tyrosinase activity, column 1 (melanocyte strain 1505b): 175 % of control
Tyrosinase activity, column 2 (melanocyte strain 1505b): 155 % of control
Tyrosinase activity, column 3 (melanocyte strain 1505b): 115 % of control
Tyrosinase activity, Mean (melanocyte strain 1505b): 148.3 % of control
maximal level of cAMP (melanocytes strain 1513c): higher maximal level of cAMP than MSH
Tyrosinase activity, column 1 (melanocyte strain 1513c [2]; [5]): 302 % of control
Tyrosinase activity, column 3 (melanocyte strain 1513c [2]; STRAIN 1513c [1], Table 4, 1nM): 164 % of control
Tyrosinase activity, column 2 (melanocyte strain 1513c [2]; [6]): 203 % of control
Tyrosinase activity, column 1 (melanocyte strain 1513c [2]; [7]): 329.9 % of control
Tyrosinase activity, column 2 (melanocyte strain 1513c [2]; [8]): 229.2 % of control
Tyrosinase activity, Mean (melanocyte strain 1513c [2]; STRAIN 1513c [2], Table 5): 279.6 % of control
UV-induced hydrogen peroxide generation (melanocytic strain 1505b; 1 nM): significant reduction of UV-induced hydrogen peroxide generation

Ac-Nle-Glu His-D-Phe-Arg-Trp-NH2 (Ac-[Nle]EH[dF]RW-NH2; SMILES CCCC[C@H](NC(C)=O)C(=O)N[C@@H](CCC(=O)O)C(=O)N[C@@H](Cc1c[nH]cn1)C(=O)N[C@H](Cc1ccccc1)C(=O)N[C@@H](CCCNC(=N)N)C(=O)N[C@@H](Cc1c[nH]c2ccccc12)C(N)=O) [CUV9900, hexapeptide, alpha-MSH analogue]
Cell proliferation, column 2 (melanocyte strain 1513c [1]; STRAIN 1513c [1], Table 1, 1nM): 108 % of control
Cell proliferation, Mean (melanocyte strain 1513c [1]; [3]): 110.7 % of control
Cell proliferation, column 2 (melanocyte strain 1513c [1]; STRAIN 1513c [2], Table 2): 119.8 % of control
Cell proliferation, Mean (melanocyte strain 1513c [1]; [4]): 119.9 % of control
Cell proliferation, Mean [1+2] (melanocyte strain 1513c [1]; Table 2): 114.3 % of control
Tyrosinase activity, column 1 (melanocyte strain 1505b): 259 % of control
Tyrosinase activity, column 2 (melanocyte strain 1505b): 199 % of control
Tyrosinase activity, column 3 (melanocyte strain 1505b): 126 % of control
Tyrosinase activity, Mean (melanocyte strain 1505b): 194.7 % of control
effect on tyrosinase activity after 3 days of treatment (melanocyte strain 1505b; strain 1505b, 0.1 nM CUV9900, 1 nM MSH): 259 % of control
residual effects 4 days after peptide removal, comparison with MSH (melanocyte strain 1505b; strain 1505b, 0.1 nM CUV9900 vs 1 nM MSH): equal
cAMP, potency comparison (melanocytes strain 1513c; at 0.1 nM): more potent than NDP-MSH
maximal level of cAMP (melanocytes strain 1513c): higher maximal level of cAMP than MSH
Tyrosinase activity, column 1 (melanocyte strain 1513c [2]; [5]): 284 % of control
Tyrosinase activity, column 3 (melanocyte strain 1513c [2]; STRAIN 1513c [1], Table 4, 1nM): 160 % of control
Tyrosinase activity, column 2 (melanocyte strain 1513c [2]; [6]): 203 % of control
Tyrosinase activity, column 1 (melanocyte strain 1513c [2]; [7]): 385.1 % of control
Tyrosinase activity, column 2 (melanocyte strain 1513c [2]; [8]): 388.7 % of control
Tyrosinase activity, Mean (melanocyte strain 1513c [2]; STRAIN 1513c [2], Table 5): 386.9 % of control
superior stability over MSH (tyrosinase activity) (melanocyte strain 1513c [2]; [9]): 55.3%
superior stability over NDP (tyrosinase activity) (melanocyte strain 1513c [2]; [9]): 15.7%
effect of incubation of the peptide on stimulation of tyrosinase activity (melanocyte strain 1513c [2]; strain 1513c, 1 nM peptide incubated 5-7 hours at 37 degrees Celsius): no effect on its ability to stimulate tyrosinase activity
reducing the generation of hydrogen peroxide, comparison to NDP-MSH and MSH (melanocytic strain 1505b; at 45 minutes after UV): most effective at reducing the generation of hydrogen peroxide
hydrogen peroxide generation, comparison (melanocytic strain 1505b; at 45 minutes after irradiation, 1 nM, strain not given): lower hydrogen peroxide generation in comparison with both NDP-MSH and MSH
UV-induced hydrogen peroxide generation (melanocytic strain 1505b; 1 nM): significant reduction of UV-induced hydrogen peroxide generation

— patent EP2487185A1, “Hexapeptide with improved activity in the repair of cellular DNA of dermal cells” (Clinuvel Pharmaceuticals Limited, priority 2011, dated 2012)
